According to patent publication US6643591B1, “Use of computational and experimental data to model organic compound reactivity in cytochrome P450 mediated reactions and to optimize the design of pharmaceuticals” (University of Pittsburgh, priority 1998, dated 2003):
Several values for one entry are separate records, joined by “and”; a condition that tells them apart may be missing. Identical values can stand only once. Like-named read-outs stand apart in the source and are kept apart here. Marks after values point to notes of the source that are not given here.

Experiments:
CYP4B1 = CYP4B1 (Oryctolagus cuniculus, UniProt P15128)
Sequence of CYP4B1 (P15128 whole entry): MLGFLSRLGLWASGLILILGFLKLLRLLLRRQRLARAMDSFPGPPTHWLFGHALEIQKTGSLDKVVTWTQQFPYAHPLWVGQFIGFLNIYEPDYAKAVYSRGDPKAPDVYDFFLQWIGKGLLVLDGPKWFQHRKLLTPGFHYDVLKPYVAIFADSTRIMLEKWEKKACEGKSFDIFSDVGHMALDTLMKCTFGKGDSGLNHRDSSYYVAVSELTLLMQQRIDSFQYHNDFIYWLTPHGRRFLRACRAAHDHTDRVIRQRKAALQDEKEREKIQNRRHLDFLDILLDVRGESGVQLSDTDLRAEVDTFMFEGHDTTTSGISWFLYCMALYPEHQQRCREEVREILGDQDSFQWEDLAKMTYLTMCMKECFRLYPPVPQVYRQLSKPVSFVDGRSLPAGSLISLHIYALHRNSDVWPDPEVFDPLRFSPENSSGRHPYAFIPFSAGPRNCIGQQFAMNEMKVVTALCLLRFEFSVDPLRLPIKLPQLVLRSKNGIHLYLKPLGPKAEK

CYP2C9 = CYP2C9 (Homo sapiens, UniProt P11712)
Sequence of CYP2C9 (P11712 whole entry): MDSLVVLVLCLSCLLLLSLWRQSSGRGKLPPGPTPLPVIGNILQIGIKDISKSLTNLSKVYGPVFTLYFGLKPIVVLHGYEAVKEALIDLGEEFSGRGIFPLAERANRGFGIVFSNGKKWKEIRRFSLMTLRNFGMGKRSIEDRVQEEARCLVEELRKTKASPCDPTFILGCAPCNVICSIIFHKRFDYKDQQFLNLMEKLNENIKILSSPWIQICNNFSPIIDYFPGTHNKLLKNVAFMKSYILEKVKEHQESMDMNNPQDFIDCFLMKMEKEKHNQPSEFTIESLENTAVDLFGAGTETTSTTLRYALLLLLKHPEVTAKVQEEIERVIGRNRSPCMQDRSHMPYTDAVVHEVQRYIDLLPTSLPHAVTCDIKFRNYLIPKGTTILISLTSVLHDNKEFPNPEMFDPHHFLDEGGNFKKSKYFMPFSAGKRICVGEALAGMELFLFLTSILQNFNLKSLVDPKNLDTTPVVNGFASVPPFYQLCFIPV

CYP2B1 = molecular target: T1, CYP2B1 (Rattus norvegicus, UniProt P00176)
T1 sequence (P00176 1-491): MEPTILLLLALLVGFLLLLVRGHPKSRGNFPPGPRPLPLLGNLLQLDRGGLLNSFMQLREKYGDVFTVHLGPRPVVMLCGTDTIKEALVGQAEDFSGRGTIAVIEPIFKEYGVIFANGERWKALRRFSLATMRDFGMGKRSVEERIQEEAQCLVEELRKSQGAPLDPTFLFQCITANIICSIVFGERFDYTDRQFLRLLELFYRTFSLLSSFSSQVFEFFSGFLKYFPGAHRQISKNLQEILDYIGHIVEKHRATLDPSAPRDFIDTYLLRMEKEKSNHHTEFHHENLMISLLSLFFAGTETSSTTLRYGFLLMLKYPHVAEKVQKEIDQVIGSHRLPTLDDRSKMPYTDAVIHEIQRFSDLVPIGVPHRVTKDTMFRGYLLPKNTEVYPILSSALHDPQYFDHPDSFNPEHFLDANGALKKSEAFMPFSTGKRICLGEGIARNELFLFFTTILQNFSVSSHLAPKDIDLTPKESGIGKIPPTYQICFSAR

CYP2B6 = molecular target: T2, CYP2B6 (Homo sapiens, UniProt P20813)
T2 sequence (P20813 1-491): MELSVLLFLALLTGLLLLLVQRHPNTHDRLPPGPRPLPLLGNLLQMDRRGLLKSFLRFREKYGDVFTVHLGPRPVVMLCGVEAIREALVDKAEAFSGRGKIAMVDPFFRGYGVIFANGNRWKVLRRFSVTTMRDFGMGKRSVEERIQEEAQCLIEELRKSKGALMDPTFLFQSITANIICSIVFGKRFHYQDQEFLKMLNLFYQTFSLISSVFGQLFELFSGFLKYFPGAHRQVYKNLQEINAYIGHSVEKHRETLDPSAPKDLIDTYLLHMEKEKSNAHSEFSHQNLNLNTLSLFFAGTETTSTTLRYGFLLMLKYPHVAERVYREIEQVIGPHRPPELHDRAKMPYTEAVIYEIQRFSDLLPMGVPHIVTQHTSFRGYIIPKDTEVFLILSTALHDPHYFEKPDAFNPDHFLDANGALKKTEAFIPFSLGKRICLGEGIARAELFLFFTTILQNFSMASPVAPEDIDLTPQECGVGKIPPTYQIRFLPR

CYP2E1 = CYP2E1 (Homo sapiens, UniProt P05181)
Sequence of CYP2E1 (P05181 whole entry): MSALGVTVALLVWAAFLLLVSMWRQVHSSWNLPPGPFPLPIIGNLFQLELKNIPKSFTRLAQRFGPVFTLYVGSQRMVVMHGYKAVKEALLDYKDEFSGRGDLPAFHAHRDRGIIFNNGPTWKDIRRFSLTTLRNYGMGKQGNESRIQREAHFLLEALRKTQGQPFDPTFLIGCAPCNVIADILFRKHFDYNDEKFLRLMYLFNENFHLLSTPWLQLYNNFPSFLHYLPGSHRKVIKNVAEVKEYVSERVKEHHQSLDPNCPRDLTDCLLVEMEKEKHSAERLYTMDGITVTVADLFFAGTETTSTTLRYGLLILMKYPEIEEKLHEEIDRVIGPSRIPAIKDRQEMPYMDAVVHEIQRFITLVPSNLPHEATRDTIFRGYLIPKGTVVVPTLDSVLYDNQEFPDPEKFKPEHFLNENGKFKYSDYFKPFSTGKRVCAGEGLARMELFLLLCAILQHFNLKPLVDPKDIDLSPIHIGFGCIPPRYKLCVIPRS

CYP1A2 [1] = molecular target: T3, CYP1A2 (Homo sapiens, UniProt P05177)
T3 sequence (P05177 1-516): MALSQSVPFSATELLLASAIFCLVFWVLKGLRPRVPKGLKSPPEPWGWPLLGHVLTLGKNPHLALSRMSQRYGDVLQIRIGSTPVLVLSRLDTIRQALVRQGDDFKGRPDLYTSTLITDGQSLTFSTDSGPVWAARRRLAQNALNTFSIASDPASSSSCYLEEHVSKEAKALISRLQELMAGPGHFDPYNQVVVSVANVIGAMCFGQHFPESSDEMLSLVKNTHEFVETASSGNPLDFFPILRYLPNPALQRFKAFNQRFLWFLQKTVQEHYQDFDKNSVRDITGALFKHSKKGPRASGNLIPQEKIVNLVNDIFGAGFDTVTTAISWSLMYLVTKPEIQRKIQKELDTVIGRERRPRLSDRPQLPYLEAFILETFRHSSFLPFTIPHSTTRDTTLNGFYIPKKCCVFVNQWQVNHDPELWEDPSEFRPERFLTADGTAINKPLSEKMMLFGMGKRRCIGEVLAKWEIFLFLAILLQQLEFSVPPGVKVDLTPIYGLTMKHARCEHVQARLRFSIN

CYP [2] = assay: Activation energy differences from experimental regioselectivity of substrates in rapid equilibrium; type: in vitro ADME; design: unit not given here; details: difference in activation energy calculated by the experimental regioselectivity
Text: Five substrates shown to undergo rapid equilibrium between positions of metabolism have been used to prepare data for regression and then correlation with Eq. 1. The differences in activation energy calculated by the experimental regioselectivity of the substrates, along with the differences in AM1 activation enthalpies, are given in Table 1. Regression of the experimental data gives a slope correction for AM1 activation energies of 0.75±0.20.

CYP [3] = details: cited from earlier work
P450cam = molecular target: T4, P450cam (Pseudomonas putida, UniProt P00183); assay: Intramolecular isotope effects with purified P450cam; type: in vitro ADME, bacterial; details: benzylic hydroxylation, -CH2D (d1) substrate
T4 construct: made in house
T4 sequence (P00183 2-415): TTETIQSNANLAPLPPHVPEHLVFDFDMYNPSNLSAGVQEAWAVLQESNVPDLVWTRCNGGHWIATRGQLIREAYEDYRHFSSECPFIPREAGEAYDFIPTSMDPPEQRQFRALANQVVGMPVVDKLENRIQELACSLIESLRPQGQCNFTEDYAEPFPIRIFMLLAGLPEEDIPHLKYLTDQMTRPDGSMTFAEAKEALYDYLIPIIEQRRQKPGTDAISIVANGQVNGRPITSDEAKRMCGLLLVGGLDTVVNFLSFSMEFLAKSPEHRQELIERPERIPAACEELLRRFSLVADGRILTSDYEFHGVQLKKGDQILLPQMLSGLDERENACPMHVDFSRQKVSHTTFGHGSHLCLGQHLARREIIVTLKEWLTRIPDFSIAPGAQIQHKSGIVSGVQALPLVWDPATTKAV
Procedure: For the intramolecular isotope effect experiments herein, a substrate is chosen that contains at least two symmetrical sites, with at least one site, but not all, isotopically labeled. A single concentration of substrate is incubated with enzyme, and the ratio of labeled to unlabeled compound in the isotopic mixture of products (or the corresponding rates of formation of products) are used to calculate a KIE.
Construction of expression plasmids for P450cam, Pd, and PdR as well as protein expression and purification have been described previously (Shimoji et al. (1998) Biochemistry 37, 8848-52).
Enzyme incubations with monodeuterated toluenes and p-xylene-α-^2H1-α′-^2H1 were performed in triplicate at a single substrate concentration of 0.25 mM. […] The kinetic parameters for metabolism of the substituted toluenes were determined by GC-MS analysis of the M-(dimethylsilyl) derivative of the product benzyl alcohols (see below).

CYP [4] = assay: Experimental product ratios for aromatic oxidation
Text: These equations may be solved with the data in Table 4, which provides experimental data for aromatic oxidation reactions with a number of substrates.
Experimental metabolite ratios may also be used to parameterize the aromatic oxidation reaction in a theoretical model for CYP reactions. As with hydrogen atom abstraction discussed in the previous Examples, experimental ratios of aromatic oxidation to an alternate position may be determined using various CYP enzymes. These substrates were chosen based on their small size, the presence of an alternate position for metabolism, and their hydrophobicity.
In order for the substrates to be useful, the average of the rotation rates in the active sites should be rapid. […] Several human expressed CYP enzymes were used in these studies, including CYP1A1, 1A2, 2A6, 2B6, 2C8, 2C9, 2D6, 2E1, 3A4, and 3A5. The use of multiple enzymes insures that a reasonable average of any orientation preferences within the active site (see FIG. 1).

CYP1A2 [5] = details: O-deethylation favored; cited from earlier work

SMILES: [2H]C([2H])([2H])c1ccc(CCl)cc1 [α-Chloromethyl-p-xylene-α′-^2H3]
- nmol TP (CYP4B1): 17.0* nmol
- nmol p-Alc (CYP4B1): 15.2* nmol
- nmol p-Ald + TolA (CYP4B1): 1.87* nmol
- nmol TP (CYP2C9): 1.8* nmol
- nmol p-Alc (CYP2C9): 0.10* nmol
- nmol p-Ald + TolA (CYP2C9): 1.7* nmol
- nmol TP (CYP2B1): 21.3 nmol
- nmol p-Alc (CYP2B1): 1.3* nmol
- nmol p-Ald + TolA (CYP2B1): 20.0* nmol
- nmol TP (CYP2B6): 14* nmol
- nmol p-Alc (CYP2B6): 1.82* nmol
- nmol p-Ald + TolA (CYP2B6): 12* nmol
- nmol TP (CYP2E1): 31 nmol
- nmol p-Alc (CYP2E1): 0.78* nmol
- nmol p-Ald + TolA (CYP2E1): 30 nmol
- nmol TP (CYP1A2 [1]): 47 nmol
- nmol p-Alc (CYP1A2 [1]): 1.3* nmol
- nmol p-Ald + TolA (CYP1A2 [1]): 46 nmol

SMILES: [2H]C([2H])([2H])c1ccccc1OC [o-Methylanisole-α-^2H3]
- nmol 4M3MPh (CYP4B1): 1.9* nmol
- nmol TP (CYP4B1): 55 nmol
- nmol o-CR (CYP4B1): 50* nmol
- nmol o-MBA (CYP4B1): 3.5* nmol
- nmol TP (CYP2C9): 3.9* nmol
- nmol o-CR (CYP2C9): 1.4* nmol
- nmol o-MBA (CYP2C9): 0.7* nmol
- nmol 4M3MPh (CYP2B1): 13* nmol
- nmol TP (CYP2B1): 17* nmol
- nmol o-CR (CYP2B1): 2.8* nmol
- nmol o-MBA (CYP2B1): 0.36* nmol
- nmol 4M3MPh (CYP2B6): 3.3 nmol
- nmol TP (CYP2B6): 22 nmol
- nmol o-CR (CYP2B6): 17* nmol
- nmol o-MBA (CYP2B6): 0.95* nmol
- nmol 4M3MPh (CYP2E1): 13* nmol
- nmol TP (CYP2E1): 19* nmol
- nmol o-CR (CYP2E1): 4.7* nmol
- nmol o-MBA (CYP2E1): 0.99* nmol
- nmol 4M3MPh (CYP1A2 [1]): 11.5* nmol
- nmol TP (CYP1A2 [1]): 17.2 nmol
- nmol o-CR (CYP1A2 [1]): 4.2* nmol
- nmol o-MBA (CYP1A2 [1]): 1.52* nmol

SMILES: CCCCCCCC [Octane]
- ΔΔG (experimental) (CYP [2]): −3.13
- Average P value (primary KIE) (CYP [3]; Jones et al. 1987): 7.6

SMILES: Cc1ccc(Br)cc1 [Br, p-bromotoluene]
- Intramolecular KIE (kH/kD) (CYP2C9; human, pH 7.4): 6.9
- Intramolecular KIE (kH/kD) (CYP2B1): 8.02
- Intermolecular Noncompetitive ^DV (CYP2E1; pH 7.4): 1.07 ± 0.04
- Intramolecular KIE (kH/kD) (P450cam): 8.3
- Intramolecular KIE (kH/kD) (CYP1A2 [1]; pH 7.4): 6.83 (8)

SMILES: Cc1ccc(Cl)cc1 [Cl, p-chlorotoluene]
- Intramolecular KIE (kH/kD) (CYP2C9; human, pH 7.4): 6.2
- Intermolecular Competitive ^D(V/K) (CYP2B1): 3.21 ± 0.02
- Intramolecular KIE (kH/kD) (CYP2B1): 8.1 and 8.06 ± 0.12
- Intermolecular Noncompetitive ^DV (CYP2E1; pH 7.4): 1.61 ± 0.01
- Intramolecular KIE (kH/kD) (P450cam): 6.5

SMILES: [2H]C([2H])([2H])c1ccc(Br)cc1 [Br-d3]
- V/K (CYP2E1): 0.027 min⁻¹
- Vmax (CYP2E1): 54.8 nM/min

SMILES: [2H]Cc1ccc(C[2H])cc1 [CH2D, p-Xylene-α-^2H1-α′-^2H1]
- Intramolecular KIE (kH/kD) (CYP2C9): 5.9
- Intramolecular KIE (kH/kD) (CYP2B1): 6.23
- Intramolecular KIE (kH/kD) (CYP2E1): 5.45 (5)
- Intramolecular KIE (kH/kD) (P450cam): 6.0
- Intramolecular KIE (kH/kD) (CYP1A2 [1]): 5.59 (1)

SMILES: [2H]C([2H])([2H])Oc1ccc(C)cc1 [p-Methylanisole-α-^2H3]
- nmol p-CR (CYP4B1): 52* nmol
- nmol p-MBA (CYP4B1): 48* nmol
- nmol total TP (CYP4B1): 100* nmol
- nmol p-CR (CYP2B1): 3.3* nmol
- nmol p-MBA (CYP2B1): 0.9* nmol
- nmol total TP (CYP2B1): 4.2* nmol
- nmol p-CR (CYP2B6): 9* nmol
- nmol p-MBA (CYP2B6): 2.39* nmol
- nmol total TP (CYP2B6): 11 nmol
- Vmax (CYP2E1): 18.0 nM/min
- nmol p-CR (CYP2E1): 18.2* nmol
- nmol p-MBA (CYP2E1): 10.6* nmol
- nmol total TP (CYP2E1): 29 nmol

SMILES: CCc1ccccc1 [Ethylbenzene]
- Experimental Ratio (CYP [4]; Arom/benz): 0.086

SMILES: [2H]C([2H])([2H])c1ccc(Cl)cc1 [Cl-d3]
- V/K (CYP2E1): 0.020 min⁻¹
- Vmax (CYP2E1): 31.4 nM/min

SMILES: COc1ccccc1 [Anisole]
- Experimental Ratio (CYP [4]; human): 10.6
- Relative difference in energy for p-hydroxylation and demethylation (CYP [3]; calculated from the product ratios of Lindsay Smith et al.): 0.6 kcal/mol
- Intermolecular isotope effect (Lindsay Smith et al.) (CYP [3]; deuteration of the methyl group): 7
- Ratio of p-hydroxyanisole to phenol, average (CYP [3]; four microsomal systems (Lindsay Smith)): 2.9

SMILES: Cc1ccc(C)cc1 [CH3, p-xylene]
- Benzylic hydroxylation, share of total oxidation / metabolism (CYP [3]; depending on the source of CYP): ~95%
- Intermolecular Competitive ^D(V/K) (CYP2E1; pH 7.4): 1.18 ± 0.03
- Intermolecular Noncompetitive ^D(V/K) (CYP2E1; pH 7.4): 1.19 ± 0.01
- Intermolecular Noncompetitive ^DV (CYP2E1; pH 7.4): 1.05 ± 0.03
- Intramolecular KIE (kH/kD) (CYP2E1; pH 7.4): 5.45 ± 0.05

SMILES: Cc1ccccc1 [H, toluene]
- Isotope effect measured by White and McCarthy (CYP [3]): 2
- Intramolecular KIE (kH/kD) (CYP2B1): 7
- Intramolecular KIE (kH/kD) (CYP2E1; pH 7.4): 6.1 (1)
- Intramolecular KIE (kH/kD) (CYP1A2 [1]; pH 7.4): 6.1 (4)

SMILES: CCOc1ccc2ccc(=O)oc2c1 [7-ethoxycoumarin]
- Energy difference between O-deethylation and aromatic hydroxylation pathways (CYP1A2 [5]): about 1.8 kcal/mol

SMILES: CCCC(CCC)C(=O)O [Valproate]
- ΔΔG (experimental) (CYP [2]): −2.48

SMILES: Cc1ccc(C#N)cc1 [CN, p-tolunitrile]
- Intramolecular KIE (kH/kD) (CYP2C9; human, pH 7.4): 11.1
- Intramolecular KIE (kH/kD) (CYP2B1): 11.9
- Intramolecular KIE (kH/kD) (CYP2E1; pH 7.4): 10.1 (1)
- Intramolecular KIE (kH/kD) (P450cam): 11.6
- Intramolecular KIE (kH/kD) (CYP1A2 [1]; pH 7.4): 10.1 (2)
